{"source": "paper PMC9837035", "about": "(Nature Communications, 2023)", "key": {"[1]": {"assay": "Hematological and hepatic parameters, 2-week repeated oral dosing", "type": "in vivo", "settings": "rats, two weeks"}, "[2]": {"assay": "Liver microsomal stability assay, human", "type": "in vitro ADME", "settings": "for Metabolic stability, % remaining of RK-701: Human", "description": "[Human/Rat] Liver microsome analyses (human, rat) were performed in triplicate by the Sumika Chemical Analysis Service (SCAS) according to the standard protocols. […] [Dog/Monkey] Liver microsome analyses (dog, monkey) were performed in duplicate by RIKEN according to the same protocols as SCAS."}}, "note": "Where “and” joins values, the source holds several entries; their conditions need not be identical. Equal values may be shown once."}
{"compound": "Cc1c(C(=O)NC(CCC2CC2)C(=O)Nc2ccc(C#N)cc2)[nH]c2c1C(=O)CC(C)(C)C2", "note": "(stereo not drawn) [RK-701]", "values": [{"measurement": "ALT", "setting": "[1]; 10 mg/kg", "value": "28 ± 5", "unit": "IU/L"}, {"measurement": "AST", "setting": "[1]; 10 mg/kg", "value": "64 ± 4", "unit": "IU/L"}, {"measurement": "EOS", "setting": "[1]; 10 mg/kg", "value": "0.6 ± 0.1 x 102 cells/μL"}, {"measurement": "HCT", "setting": "[1]; 10 mg/kg", "value": "43.7± 1.7", "unit": "%"}, {"measurement": "HGB", "setting": "[1]; 10 mg/kg", "value": "15.1 ± 0.7", "unit": "g/dL"}, {"measurement": "LUC", "setting": "[1]; 10 mg/kg", "value": "0.4 ± 0.2 x 102 cells/μL"}, {"measurement": "Lymph", "setting": "[1]; 10 mg/kg", "value": "51.4 ± 10.7 x 102 cells/μL"}, {"measurement": "MCH", "setting": "[1]; 10 mg/kg", "value": "20.4 ± 0.6", "unit": "pg"}, {"measurement": "MCHC", "setting": "[1]; 10 mg/kg", "value": "34.6 ± 0.3", "unit": "g/dL"}, {"measurement": "MCV", "setting": "[1]; 10 mg/kg", "value": "58.9 ± 1.6", "unit": "fL"}, {"measurement": "MONO", "setting": "[1]; 10 mg/kg", "value": "0.9 ± 0.2 x 102 cells/μL"}, {"measurement": "NEUT", "setting": "[1]; 10 mg/kg", "value": "6.4 ± 1.7 x 102 cells/μL"}, {"measurement": "PL", "setting": "[1]; 10 mg/kg", "value": "121 ± 18", "unit": "mg/dL"}, {"measurement": "RBC", "setting": "[1]; 10 mg/kg", "value": "741 ± 19 x 104 cells/μL"}, {"measurement": "Retic", "setting": "[1]; 10 mg/kg", "value": "190 ± 28.3 x 109 cells/L"}, {"measurement": "T-CHO", "setting": "[1]; 10 mg/kg", "value": "68 ± 13", "unit": "mg/dL"}, {"measurement": "TG", "setting": "[1]; 10 mg/kg", "value": "24 ± 15", "unit": "mg/dL"}, {"measurement": "TP", "setting": "[1]; 10 mg/kg", "value": "6.0 ± 0.3", "unit": "g/dL"}, {"measurement": "WBC", "setting": "[1]; 10 mg/kg", "value": "59.8 ± 12.2 x 102 cells/μL"}, {"measurement": "ALB", "setting": "[1]; 30 mg/kg", "value": "3.5 ± 0.2", "unit": "g/dL"}, {"measurement": "ALP", "setting": "[1]; 30 mg/kg", "value": "511 ± 141", "unit": "IU/L"}, {"measurement": "ALT", "setting": "[1]; 30 mg/kg", "value": "26 ± 3", "unit": "IU/L"}, {"measurement": "AST", "setting": "[1]; 30 mg/kg", "value": "64 ± 7", "unit": "IU/L"}, {"measurement": "EOS", "setting": "[1]; 30 mg/kg", "value": "0.5 ± 0.1 x 102 cells/μL"}, {"measurement": "HCT", "setting": "[1]; 30 mg/kg", "value": "42.6 ± 1.4", "unit": "%"}, {"measurement": "HGB", "setting": "[1]; 30 mg/kg", "value": "14.5 ± 0.5", "unit": "g/dL"}, {"measurement": "LUC", "setting": "[1]; 30 mg/kg", "value": "0.4 ± 0.1 x 102 cells/μL"}, {"measurement": "Lymph", "setting": "[1]; 30 mg/kg", "value": "53.0 ± 10.3 x 102 cells/μL"}, {"measurement": "MCH", "setting": "[1]; 30 mg/kg", "value": "20.0 ± 1.0", "unit": "pg"}, {"measurement": "MCHC", "setting": "[1]; 30 mg/kg", "value": "34.0 ± 0.5", "unit": "g/dL"}, {"measurement": "MCV", "setting": "[1]; 30 mg/kg", "value": "58.7 ± 2.6", "unit": "fL"}, {"measurement": "MONO", "setting": "[1]; 30 mg/kg", "value": "0.9 ± 0.1 x 102 cells/μL"}, {"measurement": "NEUT", "setting": "[1]; 30 mg/kg", "value": "6.7 ± 2.1 x 102 cells/μL"}, {"measurement": "PLT", "setting": "[1]; 30 mg/kg", "value": "122 ±15.7 x 104 cells/μL"}, {"measurement": "RBC", "setting": "[1]; 30 mg/kg", "value": "726 ± 36 x 104 cells/μL"}, {"measurement": "Retic", "setting": "[1]; 30 mg/kg", "value": "228 ± 37.5 x 109 cells/L"}, {"measurement": "T-CHO", "setting": "[1]; 30 mg/kg", "value": "64 ± 5", "unit": "mg/dL"}, {"measurement": "TG", "setting": "[1]; 30 mg/kg", "value": "17 ± 6", "unit": "mg/dL"}, {"measurement": "TP", "setting": "[1]; 30 mg/kg", "value": "5.9 ± 0.2", "unit": "g/dL"}, {"measurement": "WBC", "setting": "[1]; 30 mg/kg", "value": "61.6 ± 9.2 x 102 cells/μL"}, {"measurement": "ALB", "setting": "[1]; 100 mg/kg", "value": "3.4 ± 0.1", "unit": "g/dL"}, {"measurement": "ALP", "setting": "[1]; 100 mg/kg", "value": "566 ± 181", "unit": "IU/L"}, {"measurement": "ALT", "setting": "[1]; 100 mg/kg", "value": "29 ± 5", "unit": "IU/L"}, {"measurement": "AST", "setting": "[1]; 100 mg/kg", "value": "64 ± 5", "unit": "IU/L"}, {"measurement": "EOS", "setting": "[1]; 100 mg/kg", "value": "0.6 ± 0.2 x 102 cells/μL"}, {"measurement": "HCT", "setting": "[1]; 100 mg/kg", "value": "42.9 ± 1.1", "unit": "%"}, {"measurement": "HGB", "setting": "[1]; 100 mg/kg", "value": "14.8 ± 0.3", "unit": "g/dL"}, {"measurement": "LUC", "setting": "[1]; 100 mg/kg", "value": "0.5 ± 0.2 x 102 cells/μL"}, {"measurement": "Lymph", "setting": "[1]; 100 mg/kg", "value": "64.6 ± 14.9 x 102 cells/μL"}, {"measurement": "MCH", "setting": "[1]; 100 mg/kg", "value": "20.3 ± 0.2", "unit": "pg"}, {"measurement": "MCHC", "setting": "[1]; 100 mg/kg", "value": "34.4 ± 0.3", "unit": "g/dL"}, {"measurement": "MCV", "setting": "[1]; 100 mg/kg", "value": "59.0 ± 0.7", "unit": "fL"}, {"measurement": "MONO", "setting": "[1]; 100 mg/kg", "value": "1.2 ± 0.4 x 102 cells/μL"}, {"measurement": "NEUT", "setting": "[1]; 100 mg/kg", "value": "7.8 ± 2.9 x 102 cells/μL"}, {"measurement": "PL", "setting": "[1]; 100 mg/kg", "value": "137 ± 26", "unit": "mg/dL"}, {"measurement": "Retic", "setting": "[1]; 100 mg/kg", "value": "179 ± 45.9 x 109 cells/L"}, {"measurement": "T-CHO", "setting": "[1]; 100 mg/kg", "value": "88 ± 20", "unit": "mg/dL"}, {"measurement": "TG", "setting": "[1]; 100 mg/kg", "value": "19 ± 10", "unit": "mg/dL"}, {"measurement": "TP", "setting": "[1]; 100 mg/kg", "value": "5.8 ± 0.2", "unit": "g/dL"}, {"measurement": "WBC", "setting": "[1]; 100 mg/kg", "value": "74.8 ± 16.8 x 102 cells/μL"}, {"measurement": "Metabolic stability, % remaining of RK-701", "setting": "[2]; Time 5, replicate values", "value": "103.5% and 98.1%"}, {"measurement": "Metabolic stability, % remaining of RK-701", "setting": "[2]; Time 10, replicate values", "value": "104.9% and 98.1%"}, {"measurement": "Metabolic stability, % remaining of RK-701", "setting": "[2]; Time 20, replicate values", "value": "89.6% and 79.6%"}, {"measurement": "Metabolic stability, % remaining of RK-701", "setting": "[2]; Time 30, replicate values", "value": "78.5% and 70.7%"}, {"measurement": "Metabolic stability, % remaining of RK-701", "setting": "[2]; Time 60, replicate values", "value": "68.6% and 60.8%"}, {"measurement": "remaining at 5 min, 1 µM", "setting": "[2]; human, liver microsomes, Metabolic stability, % remaining of RK-701, Human, Time 5, replicate values", "value": 93.1, "unit": "%"}, {"measurement": "remaining at 10 min, 1 µM", "setting": "[2]; human, liver microsomes, Metabolic stability, % remaining of RK-701, Human, Time 10, replicate values", "value": 95.5, "unit": "%"}, {"measurement": "remaining at 20 min, 1 µM", "setting": "[2]; human, liver microsomes, Metabolic stability, % remaining of RK-701, Human, Time 20, replicate values", "value": 80.5, "unit": "%"}, {"measurement": "remaining at 30 min, 1 µM", "setting": "[2]; human, liver microsomes, Metabolic stability, % remaining of RK-701, Human, Time 30, replicate values", "value": 70.4, "unit": "%"}, {"measurement": "remaining at 60 min, 1 µM", "setting": "[2]; human, liver microsomes, Metabolic stability, % remaining of RK-701, Human, Time 60, replicate values", "value": 62.1, "unit": "%"}, {"measurement": "microsomal CLint at 1 μM", "setting": "[2]; human, liver microsomes, read-out: Metabolic stability in liver microsomes CLint", "value": 19, "unit": "µL/min/mg"}, {"measurement": "stability in liver microsomes", "setting": "[2]; various species", "value": "most stable in human liver microsomes"}]}
